Measurements as given in patent US20220389359A1, “USE OF PERFLUORO-N-OCTANE FOR PIEZO-MEDIATED INTRACYTOPLASMIC SPERM INJECTION” (priority 2019, published 2022).
“Also recorded” adds a separate entry of the source.

Key:
[1] = test system: 2PN (two pronuclei) mouse embryos; test: Mouse embryo development after incubation in fluorinated compounds; assay type: cell-based; conditions: for # embryos showing degeneration / Mean T2 to T3 (mean time from 2-cell stage to 3-cell stage) / Pace of embryo development compared to untreated control embryos / Mean T2 (mean time taken to reach the 2-cell stage): incubated 3 minutes in compound; for # embryos showing degeneration / Pace of embryo development compared to untreated control embryos: cultured 5 days; for Mean T2 (mean time taken to reach the 2-cell stage): embryos that reached 2-cell stage; for # 2-cell stage / # 3-cell stage / # expanded blastocyst / # hatching/hatched blastocyst: number of embryos; for # 2-cell stage / # 3-cell stage / # expanded blastocyst / # hatching/hatched blastocyst / # 2-cell stage (%) / # 3-cell stage (%) / # expanded blastocyst (%) / # hatching/hatched blastocyst (%): incubated 3 minutes, within 5-day incubation; for # 2-cell stage (%) / # 3-cell stage (%) / # expanded blastocyst (%) / # hatching/hatched blastocyst (%): proportion of 2PN embryos
Procedure: The effects of incubation in different fluorinated compounds on embryo development were tested.
223 2PN (two pronuclei) mouse embryos were randomly divided into four groups: A) raw perfluoro-n-octane; B) a commercially available perfluorohydrocarbon mixture previously used as operating liquid for Piezo-ICSI; C) purified perfluoro-n-octane; and D) untreated control.
Embryos in groups A, B and C were incubated for 3 minutes in the respective compound then transferred to culture medium. Embryos in all groups were then cultured for 5 days in an incubator (37.5° C., relative 100% humidity, 5% CO2 in air).
The number of embryos in each group showing signs of degeneration was counted.
The number of embryos in each group reaching the 2-cell, 3-cell, expanded blastocyst and hatching/hatched blastocyst stages of development within the 5-day incubation was counted.
The mean time taken to reach the 2-cell stage (T2) by those embryos that did, and the mean time taken for those embryos to develop from the 2-cell stage to the 3-cell stage (T3) were measured.

[2] = 25° C.; cited from earlier work
oocytes = test: Assisted reproduction using Piezo-ICSI with purified perfluoro-n-octane operating liquid compared to c-ICSI; assay type: in vivo, human; conditions: Piezo-ICSI with purified perfluoro-n-octane as operating liquid
Source text: The efficacy of assisted reproduction using c-ICSI was compared to using Piezo-ICSI was compared. Purified perfluoro-n-octane was used as operating liquid for Piezo-ICSI.
In particular, 69 patients having at least 6 mature oocytes were randomly divided into two groups. The first group underwent assisted reproduction in which sperm was introduced into oocytes using c-ICSI. The second group underwent assisted reproduction in which sperm was introduced into oocytes using Piezo-ICSI.
c-ICSI was performed using Eppendorf 2K control with ICSI micropipettes (TPC, Cooper Surgical). Piezo-ICSI was performed using PMM and Piezo micropipettes (Primetech). Purified perfluoro-n-octane was used as operating liquid in Piezo-ICSI.

| Compound | # embryos showing degeneration [1] | Surface tension [2] [mN/m] | Vapour pressure [2] [mbar] | Additional embryos for vitrification on average compared to c-ICSI (oocytes) | Average number of embryos for vitrification (oocytes; c-ICSI 2.7) | Oocyte degeneration rate (oocytes; c-ICSI 10.2%) [%] | Utilisation rate (oocytes; c-ICSI 45.6%) [%] | Clinical pregnancy rate (oocytes; c-ICSI 50%) [%] | Fertilization rate (oocytes successfully fertilised) (oocytes; c-ICSI 65.9%, p<0.05) [%] | Mean T2 to T3 (mean time from 2-cell stage to 3-cell stage) [1] [min] | Pace of embryo development compared to untreated control embryos [1] | Mean T2 (mean time taken to reach the 2-cell stage) [1] [min] | # 2-cell stage [1] | # 3-cell stage [1] | # expanded blastocyst [1] | # hatching/hatched blastocyst [1] | # 2-cell stage (%) [1] | # 3-cell stage (%) [1] | # expanded blastocyst (%) [1] [%] | # hatching/hatched blastocyst (%) [1] [%] |
| --- | --- | --- | --- | --- | --- | --- | --- | --- | --- | --- | --- | --- | --- | --- | --- | --- | --- | --- | --- | --- |
| FC(F)(F)C(F)(F)C(F)(F)C(F)(F)C(F)(F)C(F)(F)C(F)(F)C(F)(F)F [perfluoro-n-octane, 1,1,1,2,2,3,3,4,4,5,5,6,6,7,7,8,8,8-octadecafluorooctane] | none | 16 | 3.4 | – | – | – | – | – | – | – | – | – | – | – | – | – | – | – | – | – |
| FC(F)(F)C(F)(F)C(F)(F)C(F)(F)C(F)(F)C(F)(F)C(F)(F)C(F)(F)F [purified perfluoro-n-octane, perfluoro-n-octane] | 0 | – | – | 1 | 3.8 | 3.8 | 47.3 | 55 | 80.6 | 1293 | developed at a pace comparable to untreated control embryos; also recorded: does not negatively affect embryo development | 1304 | 51 | 48 | 45 | 33 | (93%) | (87%) | 82 | 60 |
| FC(F)(F)C(F)(F)C(F)(F)C(F)(F)C(F)(F)C(F)(F)C(F)(F)C(F)(F)F [raw perfluoro-n-octane, perfluoro-n-octane] | 0 | – | – | – | – | – | – | – | – | 1518 | developed more slowly than control embryos | 1394 | 52 | 45 | 36 | 9 | (95%) | (82%) | 65 | 16 |
